According to PMC12217109, “Development of novel benzamide class I selective lysine deacetylase inhibitors as potent anticancer agents” (Journal of Enzyme Inhibition and Medicinal Chemistry, 2025):
Like-named read-outs stand apart in the source and are kept apart here.

Assays:
OVCAR-5 = experiment: NCI-60 cytotoxicity screen; format: cell-based; settings: Homo sapiens, NCI-60, 48 h, ovarian
H322M = experiment: NCI-60 cytotoxicity screen; format: cell-based, human; settings: Homo sapiens, NCI-H322M; NCI-60, 48 h, NSCLC
Description: (§1) Compounds 3–7 were submitted to the US National Cancer Institute (NIH, Bethesda, Maryland) for screening against the NCI-60 panel of human cancer cell lines, as per standard protocol.

TK-10 = experiment: NCI-60 cytotoxicity screen; format: cell-based, human; settings: Homo sapiens, TK-10; NCI-60, 48 h, renal
Description: as §1

SNB-19 = experiment: NCI-60 cytotoxicity screen; format: cell-based; settings: Homo sapiens, NCI-60, 48 h, CNS
Description: as §1

MCF-7 = experiment: NCI-60 cytotoxicity screen; format: cell-based; settings: Homo sapiens, MCF7; NCI-60, 48 h, breast
Description: as §1

MDA-MB-435 = experiment: NCI-60 cytotoxicity screen; format: cell-based; settings: Homo sapiens, NCI-60, 48 h, melanoma
Description: as §1

UACC-62 = experiment: NCI-60 cytotoxicity screen; format: cell-based; settings: Homo sapiens, NCI-60, 48 h, melanoma
Description: as §1

HS 578 T = experiment: NCI-60 cytotoxicity screen; format: cell-based; settings: Homo sapiens, NCI-60, 48 h, breast
Description: as §1

SK-MEL-28 = experiment: NCI-60 cytotoxicity screen; format: cell-based; settings: Homo sapiens, NCI-60, 48 h, melanoma
Description: as §1

SW620 = experiment: NCI-60 cytotoxicity screen; format: cell-based; settings: Homo sapiens, SW-620; NCI-60, 48 h, colon
Description: as §1

PC-3 = experiment: NCI-60 cytotoxicity screen; format: cell-based; settings: Homo sapiens, NCI-60, 48 h, prostate
Description: as §1

NCI/ADR-RES = experiment: NCI-60 cytotoxicity screen; format: cell-based; settings: Homo sapiens, NCI-60, 48 h, ovarian
Description: as §1

HL-60 = experiment: NCI-60 cytotoxicity screen; format: cell-based; settings: Homo sapiens, NCI-60, 48 h, leukaemia
Description: as §1

H23 = experiment: NCI-60 cytotoxicity screen; format: cell-based; settings: Homo sapiens, NCI-60, 48 h, NSCLC
Description: as §1

HCT15 = experiment: NCI-60 cytotoxicity screen; format: cell-based; settings: Homo sapiens, HCT-15; NCI-60, 48 h, colon
Description: as §1

U251 = experiment: NCI-60 cytotoxicity screen; format: cell-based; settings: Homo sapiens, U-251; NCI-60, 48 h, CNS
Description: as §1

CAKI-1 = experiment: NCI-60 cytotoxicity screen; format: cell-based; settings: Homo sapiens, NCI-60, 48 h, renal
Description: as §1

OVCAR-8 = experiment: NCI-60 cytotoxicity screen; format: cell-based; settings: Homo sapiens, NCI-60, 48 h, ovarian
Description: as §1

RXF 393 = experiment: NCI-60 cytotoxicity screen; format: cell-based; settings: Homo sapiens, NCI-60, 48 h, renal
Description: as §1

EKVX = experiment: NCI-60 cytotoxicity screen; format: cell-based; settings: Homo sapiens, NCI-60, 48 h, NSCLC
Description: as §1

A549 = experiment: NCI-60 cytotoxicity screen; format: cell-based; settings: Homo sapiens, NCI-60, 48 h, NSCLC
Description: as §1

SR = experiment: NCI-60 cytotoxicity screen; format: cell-based; settings: Homo sapiens, NCI-60, 48 h, leukaemia
Description: as §1

BT 549 = experiment: NCI-60 cytotoxicity screen; format: cell-based; settings: Homo sapiens, NCI-60, 48 h, breast
Description: as §1

RPMI-8226 = experiment: NCI-60 cytotoxicity screen; format: cell-based; settings: Homo sapiens, NCI-60, 48 h, leukaemia
Description: as §1

ACHN = experiment: NCI-60 cytotoxicity screen; format: cell-based; settings: Homo sapiens, NCI-60, 48 h, renal
Description: as §1

HCT116 = experiment: NCI-60 cytotoxicity screen; format: cell-based; settings: Homo sapiens, HCT-116; NCI-60, 48 h, colon
Description: as §1

SF-268 = experiment: NCI-60 cytotoxicity screen; format: cell-based; settings: Homo sapiens, NCI-60, 48 h, CNS
Description: as §1

H460 = experiment: NCI-60 cytotoxicity screen; format: cell-based; settings: Homo sapiens, NCI-60, 48 h, NSCLC
Description: as §1

786-0 = experiment: NCI-60 cytotoxicity screen; format: cell-based; settings: Homo sapiens, NCI-60, 48 h, renal
Description: as §1

SK-MEL-5 = experiment: NCI-60 cytotoxicity screen; format: cell-based; settings: Homo sapiens, NCI-60, 48 h, melanoma
Description: as §1

UO-31 = experiment: NCI-60 cytotoxicity screen; format: cell-based; settings: Homo sapiens, NCI-60, 48 h, renal
Description: as §1

HOP-62 = experiment: NCI-60 cytotoxicity screen; format: cell-based; settings: Homo sapiens, NCI-60, 48 h, NSCLC
Description: as §1

SK-MEL-2 = experiment: NCI-60 cytotoxicity screen; format: cell-based; settings: Homo sapiens, NCI-60, 48 h, melanoma
Description: as §1

LOX IMVI = experiment: NCI-60 cytotoxicity screen; format: cell-based; settings: Homo sapiens, NCI-60, 48 h, melanoma
Description: as §1

SF-539 = experiment: NCI-60 cytotoxicity screen; format: cell-based; settings: Homo sapiens, NCI-60, 48 h, CNS
Description: as §1

SF-295 = experiment: NCI-60 cytotoxicity screen; format: cell-based; settings: Homo sapiens, NCI-60, 48 h, CNS
Description: as §1

IGROV-1 = experiment: NCI-60 cytotoxicity screen; format: cell-based; settings: Homo sapiens, NCI-60, 48 h, ovarian
Description: as §1

SN12C = experiment: NCI-60 cytotoxicity screen; format: cell-based; settings: Homo sapiens, NCI-60, 48 h, renal
Description: as §1

SNB-75 = experiment: NCI-60 cytotoxicity screen; format: cell-based; settings: Homo sapiens, NCI-60, 48 h, CNS
Description: as §1

H522 = experiment: NCI-60 cytotoxicity screen; format: cell-based; settings: Homo sapiens, NCI-60, 48 h, NSCLC
Description: as §1

COLO205 = experiment: NCI-60 cytotoxicity screen; format: cell-based; settings: Homo sapiens, COLO 205; NCI-60, 48 h, colon
Description: as §1

KM12 = experiment: NCI-60 cytotoxicity screen; format: cell-based; settings: Homo sapiens, NCI-60, 48 h, colon
Description: as §1

DU-145 = experiment: NCI-60 cytotoxicity screen; format: cell-based; settings: Homo sapiens, NCI-60, 48 h, prostate
Description: as §1

OVCAR-3 = experiment: NCI-60 cytotoxicity screen; format: cell-based; settings: Homo sapiens, NCI-60, 48 h, ovarian
Description: as §1

M14 = experiment: NCI-60 cytotoxicity screen; format: cell-based; settings: Homo sapiens, NCI-60, 48 h, melanoma
Description: as §1

OVCAR-4 = experiment: NCI-60 cytotoxicity screen; format: cell-based; settings: Homo sapiens, NCI-60, 48 h, ovarian
Description: as §1

T-47D = experiment: NCI-60 cytotoxicity screen; format: cell-based, human; settings: Homo sapiens, T47D; NCI-60, 48 h, breast
[1] = system: A2780 ovarian cancer cell line; experiment: MTT cellular viability assay, A2780; format: cell-based; settings: Homo sapiens
[2] = A2780, MTT, 96 h, read-out: A2780 IC50
[3] = listed as A2780* of Table 4, ovarian, values as in Tables 1 and 2 (MTT), read-out: A2780* cytotoxicity IC50

C=C(CN1CCN(c2ccccn2)CC1)c1ccc(C(=O)Nc2ccccc2N)cc1 [Compound 6, N-(2-aminophenyl)-4–(3-(4-(pyridin-2-yl)piperazin-1-yl)prop-1-en-2-yl)benzamide]
IC50 (OVCAR-5): 6100 nM
IC50 (H322M): 3120 nM
IC50 (TK-10): 1850 nM
IC50 (SNB-19): 4860 nM
IC50 (MCF-7): 3160 nM
IC50 (MDA-MB-435): 530 nM
IC50 (UACC-62): 1410 nM
IC50 (HS 578 T): 1110 nM
IC50 (SK-MEL-28): 2520 nM
IC50 (SW620): 1710 nM
IC50 (PC-3): 3780 nM
IC50 (NCI/ADR-RES): 1310 nM
IC50 (HL-60): 2190 nM
IC50 (H23): 940 nM
IC50 (HCT15): 1910 nM
IC50 (U251): 1480 nM
IC50 (CAKI-1): 1190 nM
IC50 (OVCAR-8): 1500 nM
IC50 (RXF 393): 1550 nM
IC50 (EKVX): 5330 nM
IC50 (A549): 2390 nM
IC50 (SR): 5330 nM
IC50 (BT 549): 3940 nM
IC50 (RPMI-8226): 1600 nM
IC50 (ACHN): 1500 nM
IC50 (HCT116): 2500 nM
IC50 (SF-268): 1660 nM
IC50 (H460): 2810 nM
IC50 (786-0): 1210 nM
IC50 (SK-MEL-5): 730 nM
IC50 (UO-31): 1800 nM
IC50 (HOP-62): 1320 nM
IC50 (SK-MEL-2): 1870 nM
IC50 (LOX IMVI): 930 nM
IC50 (SF-539): 1500 nM
IC50 (SF-295): 1390 nM
IC50 (IGROV-1): 1570 nM
IC50 (SN12C): 2360 nM
IC50 (SNB-75): 1480 nM
IC50 (H522): 1560 nM
IC50 (COLO205): 1710 nM
IC50 (KM12): 940 nM
IC50 (DU-145): 2520 nM
IC50 (OVCAR-3): 1240 nM
IC50 (M14): 8470 nM
IC50 (OVCAR-4): 6350 nM
IC50 (T-47D): 1230 nM
IC50 [1, 2]: 3500 ± 1300 nM
IC50 [1, 3]: 3500 nM

C=C(CN1CCN(c2cccc(C(F)(F)F)n2)CC1)c1ccc(C(=O)Nc2ccccc2N)cc1 [Compound 7, N-(2-aminophenyl)-4–(3-(4–(6-(trifluoromethyl)pyridin-2-yl)piperazin-1-yl)prop-1-en-2-yl)benzamide]
IC50 (OVCAR-5): 710 nM
IC50 (H322M): > 100000 nM
IC50 (TK-10): 16400 nM
IC50 (SNB-19): 650 nM
IC50 (MCF-7): 350 nM
IC50 (MDA-MB-435): 270 nM
IC50 (UACC-62): 970 nM
IC50 (HS 578 T): 450 nM
IC50 (SK-MEL-28): 2080 nM
IC50 (SW620): 530 nM
IC50 (PC-3): 420 nM
IC50 (NCI/ADR-RES): 640 nM
IC50 (HL-60): 320 nM
IC50 (H23): 14100 nM
IC50 (HCT15): 920 nM
IC50 (U251): 1160 nM
IC50 (CAKI-1): 510 nM
IC50 (OVCAR-8): 4250 nM
IC50 (RXF 393): 670 nM
IC50 (EKVX): 24300 nM
IC50 (A549): 3320 nM
IC50 (SR): 280 nM
IC50 (BT 549): 920 nM
IC50 (RPMI-8226): 530 nM
IC50 (ACHN): 8390 nM
IC50 (HCT116): 540 nM
IC50 (SF-268): 1120 nM
IC50 (H460): 640 nM
IC50 (786-0): 1970 nM
IC50 (SK-MEL-5): 400 nM
IC50 (UO-31): 2750 nM
IC50 (HOP-62): 2210 nM
IC50 (SK-MEL-2): 5650 nM
IC50 (LOX IMVI): 1490 nM
IC50 (SF-539): 980 nM
IC50 (SF-295): 390 nM
IC50 (IGROV-1): 2010 nM
IC50 (SN12C): 3790 nM
IC50 (SNB-75): 670 nM
IC50 (H522): 1110 nM
IC50 (COLO205): 3330 nM
IC50 (KM12): 670 nM
IC50 (DU-145): 1450 nM
IC50 (OVCAR-3): 260 nM
IC50 (M14): 970 nM
IC50 (OVCAR-4): 8360 nM
IC50 (T-47D): 3010 nM
IC50 [1, 2]: 800 ± 100 nM
IC50 [1, 3]: 800 nM
